Results from ChEMBL document CHEMBL1150313, “Novel bis-(arylsulfonamide) hydroxamate-based selective MMP inhibitors” (Bioorg Med Chem Lett, 2008).
Calls of active or inactive are those of the source. The calls are words filed in the database; no cut-off is given here.

How the values were obtained:
Stromelysin-2 [1] = molecular target: T1, Stromelysin-2 (Homo sapiens, UniProt P09238); assay: Inhibition of human recombinant MMP10 at 10 uM
Target sequence in this assay (P09238 99-476 limits assumed): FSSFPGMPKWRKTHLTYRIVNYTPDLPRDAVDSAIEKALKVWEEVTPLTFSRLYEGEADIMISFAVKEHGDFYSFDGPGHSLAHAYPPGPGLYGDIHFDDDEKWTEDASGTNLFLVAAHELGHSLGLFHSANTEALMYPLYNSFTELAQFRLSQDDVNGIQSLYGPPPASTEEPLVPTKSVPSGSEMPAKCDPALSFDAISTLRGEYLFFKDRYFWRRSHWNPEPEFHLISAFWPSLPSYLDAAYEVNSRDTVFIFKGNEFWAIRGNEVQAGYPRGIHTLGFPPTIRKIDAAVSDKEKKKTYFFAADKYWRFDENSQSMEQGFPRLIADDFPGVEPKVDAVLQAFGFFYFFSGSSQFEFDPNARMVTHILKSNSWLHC

[2] = molecular target: T2, Matrix metalloproteinase-9 (Homo sapiens, UniProt P14780); assay: Inhibition of human recombinant MMP9 at 10 uM
T2 sequence (P14780 whole entry): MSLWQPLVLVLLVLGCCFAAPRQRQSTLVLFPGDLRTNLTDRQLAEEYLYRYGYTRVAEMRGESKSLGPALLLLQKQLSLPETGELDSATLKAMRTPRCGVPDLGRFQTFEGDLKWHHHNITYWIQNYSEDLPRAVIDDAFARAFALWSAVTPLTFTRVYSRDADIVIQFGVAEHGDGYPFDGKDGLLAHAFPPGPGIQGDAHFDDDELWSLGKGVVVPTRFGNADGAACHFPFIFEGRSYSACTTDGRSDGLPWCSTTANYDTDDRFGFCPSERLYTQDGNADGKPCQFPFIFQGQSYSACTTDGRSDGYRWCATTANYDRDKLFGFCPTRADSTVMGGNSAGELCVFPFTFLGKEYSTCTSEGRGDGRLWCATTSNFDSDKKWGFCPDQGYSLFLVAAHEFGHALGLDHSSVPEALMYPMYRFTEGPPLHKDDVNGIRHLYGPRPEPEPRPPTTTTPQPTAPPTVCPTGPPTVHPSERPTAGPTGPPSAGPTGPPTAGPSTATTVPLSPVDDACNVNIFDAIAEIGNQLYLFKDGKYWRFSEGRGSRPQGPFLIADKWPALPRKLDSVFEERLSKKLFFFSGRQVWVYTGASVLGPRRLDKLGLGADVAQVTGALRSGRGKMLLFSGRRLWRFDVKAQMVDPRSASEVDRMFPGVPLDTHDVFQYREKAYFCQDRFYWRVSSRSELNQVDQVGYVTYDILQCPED

[3] = molecular target: T3, Matrilysin (Homo sapiens) (UniProt P09237); assay: Inhibition of human recombinant MMP7 at 10 uM
T3 sequence (whole entry): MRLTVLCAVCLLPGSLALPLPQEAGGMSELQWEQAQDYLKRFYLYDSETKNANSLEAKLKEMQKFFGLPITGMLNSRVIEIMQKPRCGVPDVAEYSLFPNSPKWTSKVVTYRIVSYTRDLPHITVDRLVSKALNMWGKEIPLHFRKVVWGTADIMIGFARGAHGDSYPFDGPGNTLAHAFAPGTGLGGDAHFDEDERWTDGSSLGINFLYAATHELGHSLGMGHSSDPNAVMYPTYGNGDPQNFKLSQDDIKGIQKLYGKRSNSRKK

Matrilysin = molecular target: T4, Matrilysin (Homo sapiens, UniProt P09237); assay: (§1) Inhibition of human recombinant MMP7
T4 sequence (P09237 whole entry): T3 sequence (whole entry)

[4] = molecular target: T2, Matrix metalloproteinase-9; assay: Inhibition of human recombinant MMP9
Stromelysin-2 [5] = molecular target: T1, Stromelysin-2; assay: Inhibition of human recombinant MMP10
[6] = molecular target: T3, Matrilysin (Homo sapiens); assay: as §1

Structure (SMILES) | inhibition (Stromelysin-2 [1]) | Ki (Matrilysin) | Ki [4] | Activity [4] | Ki (Stromelysin-2 [5]) | also measured
O=C(NO)[C@H](CCCNS(=O)(=O)c1ccc(Br)cc1)NS(=O)(=O)c1ccc(Br)cc1 | 16.4% | – | – | – | – | inhibition [2]: 9.3%; inhibition [3]: 32%
O=C(NO)[C@H](CCCNS(=O)(=O)c1ccc(Cl)cc1)NS(=O)(=O)c1ccc(Cl)cc1 | 34.5% | – | – | inactive | – | inhibition [3]: 31%
O=C(NO)[C@H](CCCCNS(=O)(=O)c1ccc(C(F)(F)F)cc1)NS(=O)(=O)c1ccc(C(F)(F)F)cc1 | 1.8% | – | – | inactive | – | inhibition [3]: 24%
O=C(NO)C(CNS(=O)(=O)c1ccc(C(F)(F)F)cc1)NS(=O)(=O)c1ccc(C(F)(F)F)cc1 (configuration not stated) | – | 10 µM | 7.9 µM | – | 23 µM | –
O=C(NO)[C@H](CCCNS(=O)(=O)c1ccc(F)cc1)NS(=O)(=O)c1ccc(F)cc1 | 20% | – | – | inactive | – | inhibition [3]: 17%
O=C(NO)C(CNS(=O)(=O)c1c(F)c(F)c(F)c(F)c1F)NS(=O)(=O)c1c(F)c(F)c(F)c(F)c1F (configuration not stated) | – | 8.6 µM | 212 µM | – | – | Activity (Stromelysin-2 [5]): inactive
COc1ccc(S(=O)(=O)NCCC[C@H](NS(=O)(=O)c2ccc(OC)cc2)C(=O)NO)cc1 | – | – | 4.2 µM | – | – | Activity [6]: inactive; Activity (Stromelysin-2 [5]): 16 µM
O=C(NO)C(CNS(=O)(=O)c1ccccc1C(F)(F)F)NS(=O)(=O)c1ccccc1C(F)(F)F (configuration not stated) | – | 6 µM | – | inactive | – | Activity (Stromelysin-2 [5]): inactive
O=C(NO)[C@H](CCCCNS(=O)(=O)c1ccccc1)NS(=O)(=O)c1ccccc1 | 34.5% | – | – | – | – | inhibition [2]: 7.5%; inhibition [3]: 44%
O=C(NO)[C@H](CCCCNS(=O)(=O)c1ccc(I)cc1)NS(=O)(=O)c1ccc(I)cc1 | 30.9% | – | – | inactive | – | inhibition [3]: 46%
O=C(NO)[C@H](CCCNS(=O)(=O)c1ccc(C(F)(F)F)cc1)NS(=O)(=O)c1ccc(C(F)(F)F)cc1 | – | 7 µM | 329 µM | – | 337 µM | –
O=C(NO)C(CNS(=O)(=O)c1ccc([N+](=O)[O-])cc1)NS(=O)(=O)c1ccc([N+](=O)[O-])cc1 (configuration not stated) | – | 6.6 µM | 1.7 µM | – | 22 µM | –

Second part, led by results:

inhibition (Stromelysin-2 [1]) | Ki (Matrilysin) | Ki [4] | Activity [4] | Ki (Stromelysin-2 [5]) | Structure (SMILES) | also measured
– | 0.237 µM | 0.23 µM | – | – | O=C(NO)C(CNS(=O)(=O)c1ccc(Cl)cc1)NS(=O)(=O)c1ccc(Cl)cc1 (configuration not stated) | –
– | 0.602 µM | – | inactive | – | O=C(NO)C(CNS(=O)(=O)c1cccc(C(F)(F)F)c1)NS(=O)(=O)c1cccc(C(F)(F)F)c1 (configuration not stated) | Activity (Stromelysin-2 [5]): inactive
– | 5 µM | 221 µM | – | – | O=C(NO)[C@H](CCCNS(=O)(=O)c1ccc(I)cc1)NS(=O)(=O)c1ccc(I)cc1 | Activity (Stromelysin-2 [5]): inactive
27.4% | 3.1 µM | – | inactive | – | O=C(NO)[C@H](CCCCNS(=O)(=O)c1ccc(F)cc1)NS(=O)(=O)c1ccc(F)cc1 | –
– | 0.289 µM | 124 µM | – | 372 µM | COc1ccc(S(=O)(=O)NCC(NS(=O)(=O)c2ccc(OC)cc2OC)C(=O)NO)c(OC)c1 (configuration not stated) | –
– | 5.5 µM | 0.15 µM | – | – | O=C(NO)C(CNS(=O)(=O)c1ccc(Br)cc1)NS(=O)(=O)c1ccc(Br)cc1 (configuration not stated) | –
– | 1.8 µM | 0.0026 µM | – | 1.6 µM | O=C(NO)C(CNS(=O)(=O)c1ccc(I)cc1)NS(=O)(=O)c1ccc(I)cc1 (configuration not stated) | –
– | 3 µM | – | inactive | – | O=C(NO)[C@H](CCCNS(=O)(=O)c1ccccc1)NS(=O)(=O)c1ccccc1 | Activity (Stromelysin-2 [5]): inactive
– | 0.605 µM | 0.039 µM | – | 0.335 µM | COc1ccc(S(=O)(=O)NCC(NS(=O)(=O)c2ccc(OC)cc2)C(=O)NO)cc1 (configuration not stated) | –
34.5% | 2.2 µM | – | inactive | – | O=C(NO)[C@H](CCCCNS(=O)(=O)c1ccc(Br)cc1)NS(=O)(=O)c1ccc(Br)cc1 | –
– | 4.8 µM | 150 µM | – | – | CN(C)c1cccc2c(S(=O)(=O)NCC(NS(=O)(=O)c3cccc4c(N(C)C)cccc34)C(=O)NO)cccc12 (configuration not stated) | –
– | 2.8 µM | 0.227 µM | – | 0.356 µM | O=C(NO)C(CNS(=O)(=O)c1ccccc1)NS(=O)(=O)c1ccccc1 (configuration not stated) | –
– | 0.625 µM | 2.75 µM | – | 4.57 µM | O=C(NO)C(CNS(=O)(=O)c1ccc(F)cc1)NS(=O)(=O)c1ccc(F)cc1 (configuration not stated) | –
